Key:
Test in all cases: Cell growth inhibition, CellTiter-Glo, 72 h
Assay type in all cases: cell-based
[1] = system: vCap cells; conditions: Homo sapiens, 72 h culture, mean of N=2
Protocol: (§1) 22RV1, vCap, MM1S and OPM-2 cells were cultured in RPMI-1640 medium (10% fetal bovine serum and 100 units of penicillin/streptomycin dual-antibody per mL were added to RPMI-1640) in a cell incubator at 37°C with 5% CO2, respectively. Cells in logarithmic growth phase were seeded into 96-well cell culture plates at 5×10^3 cells/100 µL/well and cultured overnight. Active compounds dissolved in DMSO at different concentrations were added with a final concentration of 0.5% DMSO. 1% Tween 20 was used as positive control and 0.5% DMSO was used as negative control. After 72 h of culture, an equal volume of CellTiter-Glo was added to each well, mixed by shaking for 2 min, and left standing at room temperature for 10 min. […] signal values were read with a microplate reader. Data were analyzed and graphs were generated using Prism 7.0. The values shown are mean ± SEM (N=2). […] The formula for inhibition rate is as follows: % Inhibition = (Icompound−IZPE)/(IHPE−IZPE) × 100 [formula]
(§2) The X-axis is compound concentration (nM), and the Y-axis is % Inhibition.

[2] = system: MM1S cells; conditions: Homo sapiens, MM1.S, 72 h culture, mean of N=2
Protocol: as §1, §2

[3] = system: OPM-2 cells; conditions: Homo sapiens, 72 h culture, mean of N=2
Protocol: as §1, §2

[4] = system: 22RV1 cells; conditions: Homo sapiens, 72 h culture, mean of N=2
Protocol: as §1, §2

| SMILES | IC50 [1] | IC50 [2] | IC50 [3] | IC50 [4] |
| --- | --- | --- | --- | --- |
| CC(=O)N1Cc2cc([C@H]3CC[C@@H](CN4Cc5cc6c(cc5C4)C(=O)N(C4CCC(=O)NC4=O)C6=O)CC3)cc(N3CCCc4cc(-c5cnn(C)c5)c(C(F)F)cc43)c2C1 (relative stereo) [Compound 2082, 6-(((1s,4s)-4-(2-acetyl-7-(7-(difluoromethyl)-6-(1-methyl-1H-pyrazol-4-yl)-3,4-dihydroquinolin-1(2H)-yl)isoindolin-5-yl)cyclohexyl)methyl)-2-(2,6-dioxopiperidin-3-yl)-6,7-dihydropyrrolo[3,4-f]isoindole-1,3(2H,5H)-dione] | 13 nM | 25 nM | 4 nM | 47 nM |
| CC(=O)N1Cc2cc([C@H]3CC[C@H](CN4Cc5cc6c(cc5C4)C(=O)N(C4CCC(=O)NC4=O)C6=O)CC3)cc(N3CCCc4cc(-c5cnn(C)c5)c(C(F)F)cc43)c2C1 (relative stereo) [Compound 2083, 6-(((1r,4r)-4-(2-acetyl-7-(7-(difluoromethyl)-6-(1-methyl-1H-pyrazol-4-yl)-3,4-dihydroquinolin-1(2H)-yl)isoindolin-5-yl)cyclohexyl)methyl)-2-(2,6-dioxopiperidin-3-yl)-6,7-dihydropyrrolo[3,4-f]isoindole-1,3(2H,5H)-dione] | 58 nM | 35 nM | 13 nM | > 10000 nM |
| CC(=O)N1Cc2cc([C@H]3CC[C@H](NC(=O)/C=C/CN(C)C)CC3)cc(N3CCCc4cc(-c5cnn(C)c5)c(C(F)F)cc43)c2C1 [Compound 1356] | – | 464 nM | 53 nM | 4270 nM |
| CC(=O)N1Cc2cc([C@H]3CC[C@@H](NC(=O)/C=C/CN(C)C)CC3)cc(N3CCCc4cc(-c5cnn(C)c5)c(C(F)F)cc43)c2C1 [Compound 1358] | – | 598 nM | 39 nM | 4940 nM |
| CC#CC(=O)N1CCC(c2cc3c(c(N4CCCc5cc(-c6cnn(C)c6)c(C(F)F)cc54)c2)CN(C(C)=O)C3)CC1 [Compound 1359] | – | – | 15 nM | 545 nM |
| CC(=O)N1Cc2cc([C@H]3CC[C@@H](NC(=O)CCl)CC3)cc(N3CCCc4cc(-c5cnn(C)c5)c(C(F)F)cc43)c2C1 [Compound 1361] | – | 2 nM | 1 nM | 106 nM |
| CC(=O)N1Cc2cc([C@H]3CC[C@H](NC(=O)CCl)CC3)cc(N3CCCc4cc(-c5cnn(C)c5)c(C(F)F)cc43)c2C1 [Compound 1362] | 6 nM | 3 nM | 2 nM | 51 nM |
| C=C(F)C(=O)N1CCC(c2cc3c(c(N4CCCc5cc(-c6cnn(C)c6)c(C(F)F)cc54)c2)CN(C(C)=O)C3)CC1 [Compound 1365] | – | – | 30 nM | 3350 nM |
| C=CS(=O)(=O)N[C@H]1CC[C@@H](c2cc3c(c(N4CCCc5cc(-c6cnn(C)c6)c(C(F)F)cc54)c2)CN(C(=O)NC)CC3)CC1 [Compound 1366, 8-(7-(difluoromethyl)-6-(1-methyl-1H-pyrazol-4-yl)-3,4-dihydroquinolin-1(2H)-yl)-N-methyl-6-((1s,4s)-4-(vinylsulfonamido)cyclohexyl)-3,4-dihydroisoquinoline-2(1H)-carboxamide] | 28 nM | 24 nM | 5 nM | 131 nM |
| C=CS(=O)(=O)N[C@H]1CC[C@H](c2cc3c(c(N4CCCc5cc(-c6cnn(C)c6)c(C(F)F)cc54)c2)CN(C(=O)NC)CC3)CC1 [Compound 1367, 8-(7-(difluoromethyl)-6-(1-methyl-1H-pyrazol-4-yl)-3,4-dihydroquinolin-1(2H)-yl)-N-methyl-6-((1r,4r)-4-(vinylsulfonamido)cyclohexyl)-3,4-dihydroisoquinoline-2(1H)-carboxamide] | 46 nM | 33 nM | 4 nM | 135 nM |
| C=CS(=O)(=O)N1CCC(c2cc3c(c(N4CCCc5cc(-c6cnn(C)c6)c(C(F)F)cc54)c2)CN(C(C)=O)CC3)CC1 [Compound 1368] | – | – | 168 nM | 1390 nM |
| CC(=O)N1Cc2cc(C3CCN(CC4CCN(CCOc5cccc6c5CN(C5CCC(=O)NC5=O)C6=O)CC4)CC3)cc(N3CCCc4cc(-c5cnn(C)c5)c(C(F)F)cc43)c2C1 (stereo not drawn) [Compound 2054] | 0.26 nM | 0.33 nM | – | 0.84 nM |
| CC(=O)N1Cc2cc(C3CCN(CC4CCN(CCNc5ccc6c(c5)CN(C5CCC(=O)NC5=O)C6=O)CC4)CC3)cc(N3CCCc4cc(-c5cnn(C)c5)c(C(F)F)cc43)c2C1 (stereo not drawn) [Compound 2062] | 0.06 nM | 0.04 nM | – | 0.24 nM |
| CC(=O)N1Cc2cc(C3CCN(CCN4CCC(CNc5ccc6c(c5)CN(C5CCC(=O)NC5=O)C6=O)CC4)CC3)cc(N3CCCc4cc(-c5cnn(C)c5)c(C(F)F)cc43)c2C1 (stereo not drawn) [Compound 2063] | – | 0.28 nM | – | 0.33 nM |
| CC(=O)N1Cc2cc(C3CCN(Cc4ccc(COc5cccc6c5CN(C5CCC(=O)N(COC(=O)CN)C5=O)C6=O)cc4)CC3)cc(N3CCCc4cc(-c5cnn(C)c5)c(C(F)F)cc43)c2C1 (stereo not drawn) [Compound 2064, (3-(4-((4-((2-acetyl-7-(7-(difluoromethyl)-6-(1-methyl-1H-pyrazol-4-yl)-3,4-dihydroquinolin-1(2H)-yl)isoindol-5-yl)piperidin-1-yl)methyl)benzyl)oxy)-1-oxoisoindolin-2-yl)-2,6-dioxopiperidin-1-yl)methyl glycinate] | 0.35 nM | – | – | 0.23 nM |
| CNC(=O)N1CCc2cc(C3CCN(CC4CCN(CCOc5cccc6c5CN(C5CCC(=O)NC5=O)C6=O)CC4)CC3)cc(N3CCCc4cc(-c5cnn(C)c5)c(C(F)F)cc43)c2C1 (stereo not drawn) [Compound 2065] | – | 0.28 nM | – | 0.41 nM |
| CNC(=O)N1CCc2cc(C3CCN(CCc4ccc(COc5cccc6c5CN(C5CCC(=O)NC5=O)C6=O)cc4)CC3)cc(N3CCCc4cc(-c5cnn(C)c5)c(C(F)F)cc43)c2C1 (stereo not drawn) [Compound 2066, 8-(7-(difluoromethyl)-6-(1-methyl-1H-pyrazol-4-yl)-3,4-dihydroquinolin-1(2H)-yl)-6-(1-(4-(((2-(2,6-dioxopiperidin-3-yl)-1-oxoisoindolin-4-yl)oxy)methyl)phenylethyl)piperidin-4-yl)-N-methyl-3,4-dihydroisoquinoline-2(1H)-carboxamide] | – | 0.23 nM | – | 0.08 nM |
| CC(=O)N1Cc2cc(C3CCN(CCC4CCN(c5ccc6c(c5)CN(C5CCC(=O)NC5=O)C6=O)CC4)CC3)cc(N3CCCc4cc(-c5cnn(C)c5)c(C(F)F)cc43)c2C1 (stereo not drawn) [Compound 2069] | – | 0.36 nM | – | 0.38 nM |
| CC(=O)N1Cc2cc(C3CCN(CCN4CCN(c5ccc6c(c5)CN(C5CCC(=O)NC5=O)C6=O)CC4)CC3)cc(N3CCCc4cc(-c5cnn(C)c5)c(C(F)F)cc43)c2C1 (stereo not drawn) [Compound 2070] | – | 0.34 nM | – | 0.42 nM |
| CC(=O)N1Cc2cc(C3CCN(CCN4CCC(COc5ccc6c(c5)CN(C5CCC(=O)NC5=O)C6=O)CC4)CC3)cc(N3CCCc4cc(-c5cnn(C)c5)c(C(F)F)cc43)c2C1 (stereo not drawn) [Compound 2071] | – | 0.31 nM | – | 0.5 nM |
| CC(=O)N1Cc2cc(C3CCOCC3)cc(-c3cccc4cc(-c5ccc(C(=O)N6CCC(Nc7cccc8c7C(=O)N(C7CCC(=O)NC7=O)C8=O)CC6)nc5)ncc34)c2C1 (stereo not drawn) [Compound 2074, 4-((1-(5-(8-(2-acetyl-6-(tetrahydro-2H-pyran-4-yl)isoindolin-4-yl)isoquinolin-3-yl)pyridinecarbonyl)piperidin-4-yl)amino)-2-(2,6-dioxopiperidin-3-yl)isoindoline-1,3-dione] | – | 426 nM | – | > 10000 nM |

Reference: EP4813980A1, “EP300/CBP REGULATOR, AND PREPARATION METHOD THEREFOR AND USE THEREOF” (Miracure Biotechnology Limited, priority 2023, dated 2025)
